In patent US11191780B2, “Extracellular matrix compositions for the treatment of cancer or immunological diseases” (ADAPTIVE BIOLOGIX, INC., priority 2015, dated 2021):
Read-outs that look alike come from different tables or passages of the source.

Legend:
C6 cells = test: C6 tumor growth in nude mice, subcutaneous co-injection; format: in vivo, mouse; settings: vs no treatment control (FIG. 12)
Protocol: (§1) Tumor growth of B16 cells, C6 cells, or MDA435 cells in the presence or absence of ECM, and with or without cisplatin, were examined in nude mice. Cells, ECM and Cisplatin were injected simultaneously subcutaneously in the lower haunch of a nude mouse. Tumor growth was followed over time using photography, measurements of length and width, then finally by weight. FIGS. 8 and 9 show the growth of tumors from C6 cells in nude mice in the presence (FIG. 9) and absence (FIG. 8) of ECM on day 14 post-injection. FIGS. 10 and 11 show the growth of tumors from C6 cells in nude mice in the presence of ECM with cisplatin (FIG. 10) and cisplatin without ECM (FIG. 11) of ECM on day 14 post-injection.

MDA435 cells = test: MDA435 tumor growth in nude mice, subcutaneous co-injection; format: in vivo, mouse
Protocol: as §1

lung cancer = settings: cited from earlier work

Row | Compound | tumor growth over 18 days (C6 cells) | tumor growth over 25 days (MDA435 cells; vs no treatment control (FIG. 14)) | tumor growth (MDA435 cells; vs no treatment control (FIGS. 13A-D)) | ORR (lung cancer; PD-L1+ patients) | ORR (lung cancer; PD-L1 negative patients) | ORR (lung cancer; all the patients with lung cancer)
1 | N.N.[Cl][Pt][Cl] [cisplatin] | no growth | reduction in tumor mass to zero | reduced or no tumor growth | – | – | –
2 | MEDI4736: an engineered fully-human anti-PD-L1 antibody | – | – | – | up to 39% | 5% | 13%
